In US20250282810A1, “Chemical Synthesis Method and Application of V. Cholerae Serotype O100 O-Antigen Oligosaccharides” (priority 2024, published 2025):

System: rabbit serum IgG antibodies
Assay: Glycan microarray screening of synthetic oligosaccharides with rabbit serum
Assay type: binding
Conditions: oligosaccharides printed at 0.1 mM and 0.5 mM, LPS at 1 mg/mL and 5 mg/mL, rabbit serum 1:200, cy3 goat anti-rabbit IgG 1:400
Protocol: . Then, a microarray spotter was used for printing distribution grids shown in FIG. 9B onto the area of a microarray (9 mm long*9 mm wide), and incubation was performed overnight at room temperature and 65% humidity to covalently bind oligosaccharide fragments to the microarray. After incubation, a mixed solution (pH=9) of […] ethanolamine and […] sodium phosphate was used for processing at 50° C. for 1 h, and then, ultrapure water was used for washing.
The glycan microarray was blocked with a PBS solution containing 3% BSA at room temperature for 1 h. The glycan microarray was washed once with a PBS solution containing 0.1% Tween 20 (PBST solution), washed twice with a PBS solution, and spin-dried, and the glycan microarray was loaded into a 16-well incubator (ProPlate). 120 microliters of rabbit serum sample diluted in a ratio of 1:200 in a PBS solution containing 1% BSA was added to each well, and incubated overnight in a moist chamber at 4° C. in the dark to allow rabbit serum IgG antibodies identifying the synthetic oligosaccharide fragments to bind to the synthetic oligosaccharides on the glycan microarray, and the sample was removed and washed three times with 200 microliters of PBST solution to remove unbound serum IgG antibodies. […]

D-FucNAc [synthetic sugar 6*]
binding ability to IgG antibodies (fluorescence signals): did not bind to antibodies
